Measurements reported in patent US20160176859A1, “High-Throughput Assay for Identifying Small Molecules that Modulate AMP-activated Protein Kinase (AMPK)” (North Carolina Central University, priority 2013, published 2016).
Entries after “also recorded” stand apart in the source; their conditions may differ. Where two headings read alike, the source gives them in different places.

Key:
[1] = biological target: T1, p-AMPK in the presence of PP2C (Rattus norvegicus, UniProt P54645+P80385); assay: Phosphatase assay: protection of p-AMPK from dephosphorylation by PP2C; format: biochemical; details: p-AMPK/total AMPK ratio normalized to no-PP2C control
T1 construct: Full-length AMPK intended for use in phosphatase and kinase assays was purified, mixed with GST-CaMKKβ; made in house; host or cells: Rosetta cells (E. coli); phosphorylated in vitro with GST-CaMKKβ, which was then removed
T1 sequence (P54645 with tags, fused parts or gaps limits assumed): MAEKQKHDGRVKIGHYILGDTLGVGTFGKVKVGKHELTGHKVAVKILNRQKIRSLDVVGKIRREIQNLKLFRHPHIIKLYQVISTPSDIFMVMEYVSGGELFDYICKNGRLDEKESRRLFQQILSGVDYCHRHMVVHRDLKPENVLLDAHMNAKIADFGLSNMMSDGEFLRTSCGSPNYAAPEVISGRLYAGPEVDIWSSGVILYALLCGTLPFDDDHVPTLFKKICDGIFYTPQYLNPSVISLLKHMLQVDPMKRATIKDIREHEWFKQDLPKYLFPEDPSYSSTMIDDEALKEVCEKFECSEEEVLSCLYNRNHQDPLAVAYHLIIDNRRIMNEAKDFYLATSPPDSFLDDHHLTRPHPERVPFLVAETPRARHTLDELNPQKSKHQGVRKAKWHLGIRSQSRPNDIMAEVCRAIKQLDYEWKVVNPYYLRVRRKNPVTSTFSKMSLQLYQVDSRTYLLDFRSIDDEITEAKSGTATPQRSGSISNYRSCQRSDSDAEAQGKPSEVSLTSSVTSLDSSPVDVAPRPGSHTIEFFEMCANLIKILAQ
T1 sequence (P80386 whole entry partner): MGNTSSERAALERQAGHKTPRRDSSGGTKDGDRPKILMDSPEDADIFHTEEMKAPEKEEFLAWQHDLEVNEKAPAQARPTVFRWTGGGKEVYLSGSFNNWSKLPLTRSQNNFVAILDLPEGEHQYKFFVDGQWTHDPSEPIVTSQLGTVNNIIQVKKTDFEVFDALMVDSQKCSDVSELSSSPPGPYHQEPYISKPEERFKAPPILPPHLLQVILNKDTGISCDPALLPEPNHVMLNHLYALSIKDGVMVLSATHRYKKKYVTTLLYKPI
T1 sequence (P80385 whole entry): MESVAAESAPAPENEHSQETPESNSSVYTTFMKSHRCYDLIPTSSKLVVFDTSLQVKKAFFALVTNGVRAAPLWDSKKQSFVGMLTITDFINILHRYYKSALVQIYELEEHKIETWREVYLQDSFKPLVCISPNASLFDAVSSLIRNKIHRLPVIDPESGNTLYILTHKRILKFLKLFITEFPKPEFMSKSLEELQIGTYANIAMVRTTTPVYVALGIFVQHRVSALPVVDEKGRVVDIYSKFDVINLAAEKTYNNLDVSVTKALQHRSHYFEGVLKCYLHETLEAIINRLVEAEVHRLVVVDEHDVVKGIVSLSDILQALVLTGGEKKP
Protocol: Phosphatase assays. Assay conditions were adapted from published methods (18). In short, the final assay buffer was compromised of 50 mM Tris (pH 7.5), […], 0.01% Triton X-100, 1 mM DTT, and 0.45% DMSO (vehicle). Because some analogs had poor solubility at high concentrations, all analogs and controls were diluted in assay buffer and centrifuged (1 min, 5000 rpm, 4° C.) to remove insoluble matter. PP2C and p-AMPK were added to the supernatant at final concentrations of 2 and 3 ng/μL, respectively. Phosphatase reactions were allowed to proceed for 30 minutes at 37° C. Reactions were stopped by the addition of loading buffer and 48 mM DTT followed promptly by freezing at −20° C.
Western analyses. Protein samples were boiled for 15 minutes in loading buffer and DTT prior to SDS-PAGE. Blots for protein-based assays were sequentially incubated with the following: 5% BSA in 1× TBS (1 hr, 22° C.), 1:1000 rabbit anti-human p-AMPK-α antibody or p-ACC antibody (2 hr, 22° C.), and 1:10,000 donkey anti-rabbit secondary antibody (1 hr, 22° C.). Blots for phosphatase assays were probed a second time using 1:100 mouse anti-human total AMPK antibody (overnight, 4° C.; from UNC Antibody Core Facility) followed by 1:10,000 donkey anti-mouse secondary antibody (1 hr, 22° C.). […]

[2] = biological target: T2, full-length AMPK (rat His-α1, β1, γ1) (Rattus norvegicus, UniProt P54645+P80385); assay: MANT-ADP fluorescence displacement (binding) assay, full-length AMPK; details: for inhibition of the protein-bound signal of MANT-ADP in the triplicate similarity screen: final concentration 45 μM; for thiol-reactivity: binding curves in the presence and absence of DTT: 0-1 mM DTT
T2 construct: Tricistronic vectors encoding full-length AMPK (rat His-α1, β1, γ1); made in house; host or cells: Rosetta cells (E. coli), tricistronic vector, gift of Dr. Uwe Schlattner
T2 sequence (P54645 with tags, fused parts or gaps limits assumed): as the sequence (P54645 with tags, fused parts or gaps limits assumed) above
T2 sequence (P80386 whole entry partner): as the sequence (P80386 whole entry partner) above
T2 sequence (P80385 whole entry): as the sequence (P80385 whole entry) above
Protocol: (§1) Except where otherwise noted, assays were performed with the following conditions: 0.5 μM full-length AMPK (130 kDa) or 0.5 μM regulatory fragment (66.7 kDa), 0.1 μM MANT-ADP, 10 mM Tris-HCl (pH 8), 0.45% DMSO (vehicle and negative control), and 5 μM ADP (positive control). Automated assays were assembled in two steps. First, a NanoQuot (BioTek) was used to dispense 11 μL of master mix (protein, MANT-ADP, and Tris-HCl) per well in black, low volume 384-well plates (Corning-3676). Next, a Biomek NX workstation (Beckman-Coulter, Brea, Calif.) equipped with pintools (VP Scientific, San Diego Calif.) was used to transfer 50 nL of controls (columns 1, 2, 23, and 24) and small molecules (4.5 μM final). Controls and library molecules were transferred from Axygen 384-well rigid PCR plates (Cat no. 321-67-051) at 221× concentration for single-concentration screening. Plates were shaken for 10 minutes prior to reading.
(§2) Fluorescence emission spectra of MANT-ADP were collected using a PerkinElmer EnSpire plate reader with an excitation wavelength of 360 nm. Background fluorescence from protein was subtracted from the raw data prior to plotting MANT-ADP's fluorescence in the presence of protein. Fluorescence detection for assay development and screening was performed on either a BMG Pherastar Plus (360/10 excitation and 460/10 emission filters) or a PerkinElmer EnVision (355/40 excitation and 460/25 emission filters), depending on equipment availability. Relative fluorescence units (RFUs) were recorded at room temperature.
(§3) ScreenAble (ScreenAble Solutions, Chapel Hill, N.C.) high-throughput screening software was utilized for merging screening data and chemical structure, for statistical design of experiments, and hit selection. GraphPad Prism was used for non-linear regression analysis of dose response data.
(§4) Binding assays. Except where otherwise noted, assay assembly and data analysis were completed according to published methods. Binding assays were manually assembled, with the exception of the similarity screen. Automated assembly of the similarity screen was completed according to published methods. Analogs were cherry-picked from a 10 mM Asinex small molecule library and a 0.5 mM kinase focused library, which has been described previously (4). Molecules were screened at a final concentration of 45 and 2.3 μM, respectively.

[3] = system: p-ACC levels in HEK cells; assay: Cell-intact assay, p-ACC levels in HEK cells; format: cell-based, human; details: for p-ACC levels, serum-treated HEK cells: 10% serum; for p-ACC levels, serum-starved HEK cells: 1 hour treatment
Protocol: Cell-intact assays. HEK cells were grown in DMEM with 10% FBS and 1% penicillin/streptomycin at 37° C. A subset of plates was serum-starved for 5 hours on the day of the experiment. After 5 hours of serum-starvation, cells were treated with either controls (0.2% DMSO, A-769662, or Compound C) or small molecules in the absence of serum for an additional hour prior to lysis. Another subset of plates was serum-starved for 6 hours and then treated with either controls or small molecules for 1 hour in the presence of 10% FBS. A time course of both AMPK and ACC phosphorylation in HEK cells during serum starvation has already been published (Pirkmajer S, Chibalin A V. Serum starvation: caveat emptor. American journal of physiology Cell physiology. 2011 August; 301(2):C272-9. PubMed PMID: 2161361).
After incubating in the presence of drugs for one hour, cells were washed three times with ice-cold PBS and lysed according to published methods (Kazgan N, Williams T, Forsberg L J, Brenman J E. Identification of a nuclear export signal in the catalytic subunit of AMP-activated protein kinase. Molecular biology of the cell. 2010 Oct. 1; 21(19):3433-42. PubMed PMID: 20685962. Pubmed Central PMCID: 2947478). Lysates were centrifuged at 16,000 g (10 minutes, 4° C.). Clarified supernatant (30 μL) was then transferred to 10 μL 4X loading buffer and 2 μL 1 M DTT. Samples were immediately frozen at −20° C. The concentration of protein in diluted clarified supernatant was calculated using a DC protein assay kit (BioRad) prior to western analyses.
(§5) Western analyses. Protein samples were boiled for 15 minutes in loading buffer and DTT prior to SDS-PAGE. Blots for protein-based assays were sequentially incubated with the following: 5% BSA in 1× TBS (1 hr, 22° C.), 1:1000 rabbit anti-human p-AMPK-α antibody or p-ACC antibody (2 hr, 22° C.), and 1:10,000 donkey anti-rabbit secondary antibody (1 hr, 22° C.). Blots for phosphatase assays were probed a second time using 1:100 mouse anti-human total AMPK antibody (overnight, 4° C.; from UNC Antibody Core Facility) followed by 1:10,000 donkey anti-mouse secondary antibody (1 hr, 22° C.). Blots for clarified cell lysates were sequentially probed for p-AMPK (1:500 dilution, overnight at 4° C. or 4 hours at 22° C.), total ACC (1:1000 dilution, overnight at 4° C. or 4 hours at 22° C.), and tubulin (1:10,000 dilution, 1 hr, 22° C.); a parallel set of blots were probed for p-ACC (1:500 dilution, overnight at 4° C. or 4 hours at 22° C.), total AMPK (1:1000 dilution, overnight at 4° C. or 4 hours at 22° C.), and tubulin (1:10,000 dilution, 1 hr, 22° C.). Because phosphorylated and total protein were imaged on separate membranes, the signals were normalized to the internal tubulin signal prior to calculating the ratio of phosphorylated to total protein. Scanning and imaging were completed according to published methods.

[4] = biological target: T3, purified p-AMPK (Rattus norvegicus, UniProt P54645+P80385); assay: Kinase assay with purified p-AMPK and GST-ACC peptide; format: biochemical; details: compared to DMSO control
T3 construct: Full-length AMPK intended for use in phosphatase and kinase assays was purified, mixed with GST-CaMKKβ; made in house; host or cells: Rosetta cells (E. coli); phosphorylated in vitro with GST-CaMKKβ, which was then removed on glutathione resin
T3 sequence (P54645 with tags, fused parts or gaps limits assumed): as the sequence (P54645 with tags, fused parts or gaps limits assumed) above
T3 sequence (P80386 whole entry partner): as the sequence (P80386 whole entry partner) above
T3 sequence (P80385 whole entry): as the sequence (P80385 whole entry) above
Protocol: Kinase assays. Assay conditions were adapted from published methods (17). The final assay buffer was comprised of 40 mM Hepes (pH 7.4) 5 mM MgCl2, 200 μM ATP, 75 mM NaCl, 0.01% Triton X-100, 1 mM DTT, and 0.45% DMSO (vehicle). Because some analogs had poor solubility at high concentrations, all analogs and controls were diluted in assay buffer and centrifuged (1 min, 5000 rpm, 4° C.) to remove insoluble matter. GST-ACC peptide and p-AMPK were thawed, diluted in assay buffer, and then added to the supernatant at final concentrations of 900 and 0.1 ng/μL, respectively. Kinase assays were assembled on ice; reactions were allowed to proceed for 30 minutes at room temperature. Reactions were stopped by the addition of loading buffer and 48 mM DTT followed promptly by freezing at −20° C.
as §5

[5] = biological target: T4, AMPK regulatory fragment (rat His-α1, 396-548; human β2, 187-272; rat γ1) (Rattus norvegicus, UniProt P80385); assay: MANT-ADP fluorescence displacement (binding) assay, AMPK regulatory fragment; details: inhibition of MANT-ADP fluorescence; for IC50: read-out: IC50 (data in parentheses)
T4 construct: rat His-α1, 396-548; human β2, 187-272; rat γ1; made in house; host or cells: Rosetta cells (E. coli), tricistronic vector, gift of Dr. Steve Gamblin
T4 sequence (P54645 407-559 partner limits assumed): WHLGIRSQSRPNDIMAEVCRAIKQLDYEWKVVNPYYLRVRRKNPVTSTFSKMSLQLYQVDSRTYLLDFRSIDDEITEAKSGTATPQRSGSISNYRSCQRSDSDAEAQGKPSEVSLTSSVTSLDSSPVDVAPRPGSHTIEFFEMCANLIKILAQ
T4 sequence (O43741 187-272 partner limits assumed): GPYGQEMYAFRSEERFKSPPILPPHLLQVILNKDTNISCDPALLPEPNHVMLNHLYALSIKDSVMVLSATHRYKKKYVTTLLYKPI
T4 sequence (P80385 whole entry, the tested form may be a part): as the sequence (P80385 whole entry) above
Protocol: as §1, §2, §3, §4

[6] = system: phospho-AMPKα in HEK cells; assay: Western blot of treated HEK cells for phospho-AMPKα (Example 3); format: cell-based, human; details: for AMPK modulatory activity / phospho-AMPKα (Western blot, FIG. 7): HEK cells; for phospho-AMPKα (Western blot, FIG. 7): standardized to tubulin; for phospho-AMPK (FIG. 8): human Hek293 cells
Protocol: Approximately 50 compounds will be tested from those identified above using the methods and assays described herein on HEK cells in culture in 6 well plate format for their ability to enter cells and modulate AMPK, initially at 1 μM, 2 μM, 10 μM and 20 μM compound in 0.1% DMSO. […] Molecular biology of the cell 23, 381-389, doi:10.1091/mbc.E11-08-0699 (2012)). Examples of this approach with compounds identified from our preliminary screening that have AMPK modulatory activity are shown in FIG. 7. […] See also FIG. 8. […] By testing under multiple conditions, the likelihood of identifying agonists and antagonists of AMPK activity in vivo, and particularly those that are not dependent on a particular means of altering AMPK activity may increase.
The phosphorylation status of AMPKα with a phospho-specific antibody (against the activation/T-loop threonine 172) (Cell Signaling) will be quantified. […] Molecular biology of the cell 21, 3433-3442, doi:10.1091/mbc.E10-04-0347 (2010)) (FIG. 7). […] In addition, phospho-ACC (Cell Signaling) will be measured by western blot. Cytoplasmic acetyl coenzyme A carboxylase (ACC) is the best known AMPK direct downstream target, and is a rate-limiting enzyme in the energy consuming process of fatty acid synthesis (Davies, S. P. et al. Purification of the AMP-activated protein kinase on ATP-gamma-sepharose and analysis of its subunit structure. European journal of biochemistry/FEBS 223, 351-357 (1994); Carling, D., Zammit, V. A. & Hardie, D. G. A common bicyclic protein kinase cascade inactivates the regulatory enzymes of fatty acid and cholesterol biosynthesis. FEBS Lett 223, 217-222 (1987)). Phospho-ACC will be standardized to both tubulin and total (non-phospho) ACC to ensure we are not measuring changes in total ACC levels. Compounds that modulate phospho-AMPKα and phospho-ACC status in the same direction (both increase or both decrease) will be prioritized over compounds that produce different affects on AMPKα versus ACC phosphorylation for in vitro kinase or phosphatase protection assays.

[7] = full-length AMPK, Example 4, read-out: binding IC50
[8] = full-length AMPK, inhibition of MANT-ADP fluorescence
[9] = full-length AMPK, inhibition of MANT-ADP fluorescence, read-out: IC50

CCCOC(=O)c1cc(-c2ccc(/C=C3\SC(=S)NC3=O)o2)ccc1Cl [BAS 03338548, Propyl 2-chloro-5-(5-{[(5Z)-4-oxo-2-sulfanylidene-1,3-thiazolidin-5-ylidene]methyl}furan-2-yl)benzoate]
protection of p-AMPK from dephosphorylation [1]: failed to protect | inhibition of the protein-bound signal of MANT-ADP in the triplicate similarity screen [2]: reproducibly inhibited | IC50 [2, 7]: < 5 µM

O=C1/C(=C/c2ccc(-c3ccc(F)cc3)o2)SC(=S)N1CCS(=O)(=O)O [STK823366, 2-[(5Z)-5-{[5-(4-fluorophenyl)furan-2-yl]methylidene}-4-oxo-2-sulfanylidene-1,3-thiazolidin-3-yl]ethane-1-sulfonic acid]
p-ACC levels, serum-treated HEK cells [3]: decreased phosphorylation; also recorded: decreases | p-ACC levels, serum-starved HEK cells [3]: decreased phosphorylation | activity of purified p-AMPK (phosphorylation of GST-ACC peptide), dose response [4]: dose-dependently inhibited

COc1cc(C(=O)/C=C/c2cc(O)c(O)c(Cl)c2)cc(OC)c1OC [Example Z64358107]
Hill slope [2, 8]: 1.1 | IC50 [2, 9]: 0.3 µM | Hill slope (data in parentheses) [5]: 2.6 | IC50 [5]: 0.2 µM

c1cc(-c2cnn3cc(-c4ccc(OCCN5CCCCC5)cc4)cnc23)ccn1 [Compound C, reference compound]
p-ACC levels, serum-treated HEK cells [3]: modest decreases | p-ACC levels, serum-starved HEK cells [3]: best inhibition | activity of purified p-AMPK (phosphorylation of GST-ACC peptide), dose response [4]: inhibits substrate phosphorylation

Cc1ccc(-c2ccc(/C=C3\SC(=S)N(CC(=O)O)C3=O)o2)cc1 [STK740822, 2-{(5Z)-5-{[5-(4-Methylphenyl)furan-2-yl]methylidene}-4-oxo-2-sulfanylidene-1,3-thiazolidin-3-yl}acetic acid]
AMPK modulatory activity [6]: activating activity | phospho-AMPKα (Western blot, FIG. 7) [6]: increased | phospho-AMPK (FIG. 8) [6]: increase | thiol-reactivity: binding curves in the presence and absence of DTT [2]: not thiol-reactive | Hill slope ([2]; full-length AMPK, Example 4): 1.2 | IC50 [2, 7]: 9 µM | Hill slope [2, 8]: 1.4 (1.4) | IC50 [2, 9]: 2.9 µM | Hill slope (data in parentheses) [5]: 1.4 (1.4) | IC50 [5]: 1.6 µM

O=C1Nc2ccc(Br)cc2/C1=C1/SC(=S)N(C(Cc2ccccc2)C(=O)O)C1=O (stereo not drawn) [STL035166]
AMPK modulatory activity [6]: inhibitory activity | phospho-AMPKα (Western blot, FIG. 7) [6]: decreased | phospho-AMPK (FIG. 8) [6]: increase | thiol-reactivity: binding curves in the presence and absence of DTT [2]: dramatically different dose response curve | IC50 ([2]; 1 mM DTT, read-out: extrapolated IC50 in the presence of DTT): ~250 µM | Hill slope [2, 8]: 1.3 | IC50 [2, 9]: 2.7 µM | Hill slope (data in parentheses) [5]: 1.4 | IC50 [5]: 1.5 µM

COC(=O)CN1C(=O)/C(=C/c2ccc(OC)cc2)SC1=S [BAS 00502779]
inhibition of the protein-bound signal of MANT-ADP in the triplicate similarity screen [2]: reproducibly inhibited
